Here are results for 5 compounds from patent publication US20210198277A1, “AMINE-SUBSTITUTED ARYL OR HETEROARYL COMPOUNDS” (Epizyme, Inc., priority 2016, published 2021).

Molecules are shown by their SMILES. Read-outs that look alike come from different tables or passages of the source.

The experiment has as its target T1, human EHMT2 913-1193 (Homo sapiens, UniProt Q96KQ7).
T1 construct: recombinant purified human EHMT2 913-1193, Viva; purchased Viva
T1 sequence (Q96KQ7 913-1193): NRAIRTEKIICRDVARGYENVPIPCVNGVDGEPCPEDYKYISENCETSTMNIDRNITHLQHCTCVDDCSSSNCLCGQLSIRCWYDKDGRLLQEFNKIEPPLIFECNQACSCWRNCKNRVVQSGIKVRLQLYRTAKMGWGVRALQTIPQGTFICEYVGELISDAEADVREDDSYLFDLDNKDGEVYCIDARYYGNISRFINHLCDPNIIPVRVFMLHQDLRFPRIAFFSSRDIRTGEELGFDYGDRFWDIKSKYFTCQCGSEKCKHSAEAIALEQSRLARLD
Kind of experiment: EHMT2 enzyme assay on histone peptide substrate (EHMT2 PEP). Format: biochemical. The following applies: read-out: EHMT2 PEP IC50. An outline of the steps:
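Radiometric methyltransferase assay: 0.031 nM EHMT2 913-1193 preincubated 30 min with compound (10-point 3-fold series, top final 50 μM, 2% DMSO) in 20 mM Bicine pH 7.5, 1 mM TCEP. Biotinylated histone peptide methylated with ^3H-SAM for 60 min at room temperature, quenched with unlabeled SAM, captured on streptavidin Flashplates and counted.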

As a reminder, the IC50 is the concentration that gives 50% inhibition. With `CNc1ccnc(Nc2ccc(OC)c(OCC[C@H]3CCCN3)c2)n1` [Compound 1074], the IC50 (Table VII) lay within 1 to 10 µM.

As for `CNc1cc(C)nc(Nc2cnc(OC)c(OC[C@H](O)CN3CCC3)c2)n1` [Compound 1089], where the note is “Table VII”, the IC50 was 0.1 to 1 µM.

Take `CNc1ccnc(Nc2ccc(OC)c(OCC(C)(O)CN3CCC3)c2)n1` (centres unmarked) [Compound 1057]: the IC50 (Table VII) is 0.1 to 1 µM.

As to `CNc1cc(C)nc(Nc2ccc(OC)c(OC[C@H]3CCN(C(C)(C)C)C3)c2)n1` [Compound 610], the IC50 (Table VI) was over 10 µM.

With `CNCC(C)(O)COc1cc(Nc2nccc(OC)n2)ccc1OC` (centres unmarked) [Compound 1058], the IC50 (Table VII) is over 10 µM.
